What follows are compounds tested on HCV 1b_Huh-Luc/Neo-ET cell line persistently expressing a bicistronic genotype 1b replicon in Huh 7 cells (assay: HCV replicon assay (luciferase readout)). Settings: Hepatitis C virus, Huh-7, 72 h, read-out: Inhibition of HCV genotype 1b.
Type: cell-based
Protocol: Biological activity of the compounds of the invention was determined using an HCV replicon assay. The HCV 1b_Huh-Luc/Neo-ET cell line persistently expressing a bicistronic genotype 1b replicon in Huh 7 cells was obtained from ReBLikon GMBH. This cell line was used to test compound inhibition using luciferase enzyme activity readout as a measurement of compound inhibition of replicon levels.
On Day 1 (the day after plating), each compound is added in triplicate to the cells. Plates incubated for 72 h prior to running the luciferase assay. Enzyme activity was measured using a Bright-Glo Kit (cat. number E2620) manufactured by Promega Corporation. The following equation was used to generate a percent control value for each compound. % Control=(Average Compound Value/Average Control)*100
The EC50 value was determined using GraphPad Prism and the following equation: Y=Bottom+(Top−Bottom)/(1+10^((Log IC50−X)*HillSlope))
EC50 values of compounds are determined several times in the replicon assay.
Example compounds of the disclosed invention are illustrated in Tables 1-14 attached as appendices. The tables show inhibitory activity of many of the example compounds with respect to HCV 1b. […] The tables further provide mass spectrometry results for the synthesized example compounds.
In the case of `COC(=O)N[C@@H](C(=O)N1CCC[C@H]1c1ncc(-c2ccc(C#Cc3ccc(-c4cnc([C@@H]5CCCN5C(=O)[C@H](NC(=O)[C@@H]5CCCO5)c5ccccc5)[nH]4)cc3)cc2)[nH]1)c1ccccc1` [Compound 195], the EC50 is reported as less than 1 nM. `COC(=O)N[C@@H](C(=O)N1CCC[C@H]1c1ncc(-c2ccc(C#Cc3ccc(-c4cnc([C@@H]5CCCN5C(=O)Nc5ccccc5)[nH]4)cc3)cc2)[nH]1)c1ccccc1` [Compound 196] gave an EC50 of 1 to 9.9 nM. In the case of `COC(=O)N[C@@H](C(=O)N1CCC[C@H]1c1ncc(-c2ccc(C#Cc3ccc(-c4cnc([C@@H]5CCCN5C(=O)NCc5ccccc5)[nH]4)cc3)cc2)[nH]1)c1ccccc1` [Compound 197], the EC50 is reported as less than 1 nM. Work on `COC(=O)N[C@@H](C(=O)N1CCC[C@H]1c1ncc(-c2ccc(C#Cc3ccc(-c4cnc([C@@H]5CCCN5C(=O)N5CCOCC5)[nH]4)cc3)cc2)[nH]1)c1ccccc1` [Compound 198] yielded an EC50 of less than 1 nM. Compound `COC(=O)N[C@@H](C(=O)N1CCC[C@H]1c1ncc(-c2ccc(C#Cc3ccc(-c4cnc([C@@H]5CCCN5C(=O)OCc5ccccc5)[nH]4)cc3)cc2)[nH]1)c1ccccc1` [Compound 200] has an EC50 of less than 1 nM. `COC(=O)N[C@@H](C(=O)N1CCC[C@H]1c1ncc(-c2ccc(C#Cc3ccc(-c4cnc([C@@H]5CCCN5C(=O)[C@H](NC(=O)[C@H]5CCCO5)c5ccccc5)[nH]4)cc3)cc2)[nH]1)c1ccccc1` [Compound 201] gave an EC50 of less than 1 nM. For `COC(=O)N[C@@H](C(=O)N1CCC[C@H]1c1ncc(-c2ccc(C#Cc3ccc(-c4cnc([C@@H]5CCCN5C(=O)C5CCCN5C)[nH]4)cc3)cc2)[nH]1)c1ccccc1` (some centres unmarked) [Compound 202], the EC50 was less than 1 nM. For `COC(=O)N[C@@H](C(=O)N1CCC[C@H]1c1ncc(-c2ccc(C#Cc3ccc(-c4cnc([C@@H]5CCCN5C(=O)[C@H](NC(=O)[C@@H]5CCCN5C)c5ccccc5)[nH]4)cc3)cc2)[nH]1)c1ccccc1` [Compound 203], the EC50 was less than 1 nM. `COC(=O)N[C@@H](C(=O)N1CCC[C@H]1c1ncc(-c2ccc(C#Cc3ccc(-c4cnc([C@@H]5CCCN5C(=O)[C@H](NC(=O)[C@H]5CCCN5C)c5ccccc5)[nH]4)cc3)cc2)[nH]1)c1ccccc1` [Compound 204] showed an EC50 of less than 1 nM. With `O=C([C@@H](c1ccccc1)N1CCCCC1)N1CCC[C@H]1c1ncc(-c2ccc(C#Cc3ccc(-c4cnc([C@@H]5CCCN5C(=O)[C@@H](c5ccccc5)N5CCCCC5)[nH]4)cc3)cc2)[nH]1` [Compound 205] the EC50 was less than 1 nM. `COC(=O)N[C@@H](C(=O)N1CCC[C@H]1c1ncc(-c2ccc(C#Cc3ccc(-c4cnc([C@@H]5CCCN5C(=O)[C@H](NC(=O)[C@@H]5CCCN5)c5ccccc5)[nH]4)cc3)cc2)[nH]1)c1ccccc1` [Compound 206] was tested, and the EC50 was less than 1 nM. In the case of `COC(=O)N[C@@H](C(=O)N1CCC[C@H]1c1ncc(-c2ccc(C#Cc3ccc(-c4cnc([C@@H]5CCCN5C(=O)[C@H](NC(=O)[C@H]5CCCN5)c5ccccc5)[nH]4)cc3)cc2)[nH]1)c1ccccc1` [Compound 207], the EC50 is reported as less than 1 nM. `O=C(N[C@@H](C(=O)N1CCC[C@H]1c1ncc(-c2ccc(C#Cc3ccc(-c4cnc([C@@H]5CCCN5C(=O)[C@@H](c5ccccc5)N5CCCCC5)[nH]4)cc3)cc2)[nH]1)c1ccccc1)C1CC1` [Compound 208] gave an EC50 of less than 1 nM. In the case of `O=C(N[C@@H](C(=O)N1CCC[C@H]1c1ncc(-c2ccc(C#Cc3ccc(-c4cnc([C@@H]5CCCN5C(=O)[C@@H](c5ccccc5)N5CCCCC5)[nH]4)cc3)cc2)[nH]1)c1ccccc1)N1CCOCC1` [Compound 209], the EC50 is reported as less than 1 nM. `CC(C)(C)OC(=O)N[C@@H](C(=O)N1CCC[C@H]1c1cc(-c2ccc(C#Cc3ccc(-c4cnc([C@@H]5CCCN5C(=O)[C@H](NC(=O)OC(C)(C)C)c5ccccc5)[nH]4)cc3)cc2)n[nH]1)c1ccccc1` [Compound 210] gave an EC50 of less than 1 nM. With `COC(=O)N[C@@H](C(=O)N1CCC[C@H]1CNC(=O)c1ccc(C#Cc2ccc(-c3cnc([C@@H]4CCCN4C(=O)[C@H](NC(=O)OC)c4ccccc4)[nH]3)cc2)cc1)c1ccccc1` [Compound 211] the EC50 was less than 1 nM. Compound `O=C(N[C@@H](C(=O)N1CCC[C@H]1c1cc(-c2ccc(C#Cc3ccc(-c4cnc([C@@H]5CCCN5C(=O)[C@H](NC(=O)C5CC5)c5ccccc5)[nH]4)cc3)cc2)n[nH]1)c1ccccc1)C1CC1` [Compound 212] has an EC50 of less than 1 nM. `CN1CCN(C(=O)N[C@@H](C(=O)N2CCC[C@H]2c2cc(-c3ccc(C#Cc4ccc(-c5cnc([C@@H]6CCCN6C(=O)[C@H](NC(=O)N6CCN(C)CC6)c6ccccc6)[nH]5)cc4)cc3)n[nH]2)c2ccccc2)CC1` [Compound 213] gave an EC50 of less than 1 nM. Work on `O=C(N[C@@H](C(=O)N1CCC[C@H]1c1cc(-c2ccc(C#Cc3ccc(-c4cnc([C@@H]5CCCN5C(=O)[C@H](NC(=O)[C@@H]5CCCO5)c5ccccc5)[nH]4)cc3)cc2)n[nH]1)c1ccccc1)[C@@H]1CCCO1` [Compound 214] yielded an EC50 of less than 1 nM. For `CN(C)[C@@H](C(=O)N1CCC[C@H]1c1ncc(-c2ccc(C#Cc3ccc(-c4cnc([C@@H]5CCCN5C(=O)[C@H](NC(=O)C5CC5)c5ccccc5)[nH]4)cc3)cc2)[nH]1)c1ccccc1` [Compound 215], the EC50 was less than 1 nM. For `CN1CCC[C@@H]1C(=O)N[C@@H](C(=O)N1CCC[C@H]1c1ncc(-c2ccc(C#Cc3ccc(-c4cnc([C@@H]5CCCN5C(=O)[C@H](NC(=O)C5CC5)c5ccccc5)[nH]4)cc3)cc2)[nH]1)c1ccccc1` [Compound 216], the EC50 was less than 1 nM. `O=C(N[C@@H](C(=O)N1CCC[C@H]1c1ncc(-c2ccc(C#Cc3ccc(-c4cnc([C@@H]5CCCN5C(=O)[C@@H](c5ccccc5)N5CCCC5)[nH]4)cc3)cc2)[nH]1)c1ccccc1)C1CC1` [Compound 217] showed an EC50 of less than 1 nM. Work on `COC(=O)N[C@@H](C(=O)N1CCC[C@H]1c1ncc(-c2ccc(C#Cc3ccc(-c4cnc([C@@H]5CCCN5C(=O)[C@H](NC(=O)C5CC5)c5ccccc5)[nH]4)cc3)cc2)[nH]1)c1ccccc1` [Compound 218] yielded an EC50 of less than 1 nM. In the case of `COC(=O)N[C@@H](C(=O)N1CCC[C@H]1c1cc(-c2ccc(C#Cc3ccc(-c4cnc([C@@H]5CCCN5C(=O)[C@H](NC(=O)OC)c5ccccc5)[nH]4)cc3)cc2)n[nH]1)c1ccccc1` [Compound 219], the EC50 is reported as less than 1 nM. `O=C(N[C@@H](C(=O)N1CCC[C@H]1c1cc(-c2ccc(C#Cc3ccc(-c4cnc([C@@H]5CCCN5C(=O)[C@H](NC(=O)N5CCOCC5)c5ccccc5)[nH]4)cc3)cc2)n[nH]1)c1ccccc1)N1CCOCC1` [Compound 220] showed an EC50 of less than 1 nM. In the case of `CN(C)C(=O)N[C@@H](C(=O)N1CCC[C@H]1c1cc(-c2ccc(C#Cc3ccc(-c4cnc([C@@H]5CCCN5C(=O)[C@H](NC(=O)N(C)C)c5ccccc5)[nH]4)cc3)cc2)n[nH]1)c1ccccc1` [Compound 221], the EC50 is reported as less than 1 nM. In the case of `O=C(Cc1cccnc1)N[C@@H](C(=O)N1CCC[C@H]1c1cc(-c2ccc(C#Cc3ccc(-c4cnc([C@@H]5CCCN5C(=O)[C@H](NC(=O)Cc5cccnc5)c5ccccc5)[nH]4)cc3)cc2)n[nH]1)c1ccccc1` [Compound 222], the EC50 is reported as less than 1 nM. In the case of `COC(=O)N[C@@H](C(=O)N1CCC[C@H]1c1ncc(-c2ccc(C#Cc3ccc(-c4cnc([C@@H]5CCCN5C(=O)[C@H](NC(=O)N5CCOCC5)c5ccccc5)[nH]4)cc3)cc2)[nH]1)c1ccccc1` [Compound 224], the EC50 is reported as less than 1 nM. `COC(=O)N[C@@H](C(=O)N1CCC[C@H]1c1ncc(-c2ccc(C#Cc3ccc(-c4cnc([C@@H]5CCCN5C(=O)[C@H](NS(C)(=O)=O)c5ccccc5)[nH]4)cc3)cc2)[nH]1)c1ccccc1` [Compound 225] was tested, and the EC50 was less than 1 nM. For `CS(=O)(=O)N[C@@H](C(=O)N1CCC[C@H]1c1ncc(-c2ccc(C#Cc3ccc(-c4cnc([C@@H]5CCCN5C(=O)[C@H](NS(C)(=O)=O)c5ccccc5)[nH]4)cc3)cc2)[nH]1)c1ccccc1` [Compound 226], the EC50 was less than 1 nM. In the case of `CC(C)OC(=O)N[C@@H](C(=O)N1CCC[C@H]1c1ncc(-c2ccc(C#Cc3ccc(-c4cnc([C@@H]5CCCN5C(=O)[C@H](NC(=O)OC(C)C)c5ccccc5)[nH]4)cc3)cc2)[nH]1)c1ccccc1` [Compound 227], the EC50 is reported as less than 1 nM. Work on `CN(C)[C@@H](C(=O)N1CCC[C@H]1c1ncc(-c2ccc(C#Cc3ccc(-c4cnc([C@@H]5CCCN5C(=O)[C@H](NS(C)(=O)=O)c5ccccc5)[nH]4)cc3)cc2)[nH]1)c1ccccc1` [Compound 228] yielded an EC50 of less than 1 nM. Compound `CCN(CC)[C@@H](C(=O)N1CCC[C@H]1c1ncc(-c2ccc(C#Cc3ccc(-c4cnc([C@@H]5CCCN5C(=O)[C@H](NS(C)(=O)=O)c5ccccc5)[nH]4)cc3)cc2)[nH]1)c1ccccc1` [Compound 229] has an EC50 of less than 1 nM. With `CS(=O)(=O)N[C@@H](C(=O)N1CCC[C@H]1c1ncc(-c2ccc(C#Cc3ccc(-c4cnc([C@@H]5CCCN5C(=O)[C@@H](c5ccccc5)N5CCCC5)[nH]4)cc3)cc2)[nH]1)c1ccccc1` [Compound 230] the EC50 was less than 1 nM. Work on `CS(=O)(=O)N[C@@H](C(=O)N1CCC[C@H]1c1ncc(-c2ccc(C#Cc3ccc(-c4cnc([C@@H]5CCCN5C(=O)[C@@H](c5ccccc5)N5CCCCC5)[nH]4)cc3)cc2)[nH]1)c1ccccc1` [Compound 231] yielded an EC50 of less than 1 nM. Work on `CS(=O)(=O)N[C@@H](C(=O)N1CCC[C@H]1c1ncc(-c2ccc(C#Cc3ccc(-c4cnc([C@@H]5CCCN5C(=O)[C@@H](c5ccccc5)N5CCOCC5)[nH]4)cc3)cc2)[nH]1)c1ccccc1` [Compound 232] yielded an EC50 of less than 1 nM. For `COC(=O)N[C@@H](C(=O)N1CCC[C@H]1c1ncc(-c2ccc(C#Cc3ccc(C(=O)NC[C@@H]4CCCN4C(=O)[C@@H](c4ccccc4)N4CCCCC4)cc3)cc2)[nH]1)c1ccccc1` [Compound 233], the EC50 was less than 1 nM. Work on `COC(=O)N[C@@H](C(=O)N1CCC[C@H]1c1ncc(-c2ccc(C#Cc3ccc(C(=O)NC[C@@H]4CCCN4C(=O)[C@@H](c4ccccc4)N(C)C)cc3)cc2)[nH]1)c1ccccc1` [Compound 234] yielded an EC50 of less than 1 nM.

From patent publication US8865756B2, “Inhibitors of HCV NS5A” (Presidio Pharmaceuticals, Inc., priority 2008, dated 2014)
